Laboratory results: patent US20260306377A1, “ANTIMICROBIAL COMPOSITIONS CONTAINING A CATIONIC ANTIMICROBIAL AND AN ACIDIC GLYCOLOPID” (LANXESS CORPORATION, priority 2023, published 2026)

Test system: mixed bacterial inoculum and mixed fungal inoculum
Assay: challenge test, overall result (bacteria and fungi)
Type: cell-based
Settings: anionic xanthan gum lotion dosed with the substance(s)
Procedure: Preservative activity in representative formulations was evaluated by using a modification of the Personal Care Products Council (PCPC) protocol (Machtiger, et al. 2001. Determination of the Efficacy of Preservation of Non-Eye Area Water Miscible Cosmetic and Toiletry Formulations: Collaborative Study. J of AOAC International. 84:1, 101-109). The evaluation was conducted using a four week, two-cycle microbial preservative efficacy test (challenge test) at 25° C. to determine the preservative efficacy of each treatment.
Xanthan gum is commonly used as a natural rheological modifier in personal care products. The formulation below was made by heating the aqueous (A) and oil (B) phases separately to 75-80° C. The oil phase was then poured into the aqueous phase and mixed by an overhead mixer and a homogenizer. The oil-in-water emulsion was cooled to room temperature. Sodium hydroxide solution was used to adjust the pH.
Lotion formulation samples were dosed with certain test materials as shown further below and mixed thoroughly at room temperature, and the formulation samples were divided into two separate aliquots of 5 gram each. One aliquot was inoculated with 50 μl of a diluted bacterial pool, the second aliquot was inoculated with 50 μl of a diluted fungal pool as described below. Unpreserved product samples were included in the test as a growth control.
A mixed bacterial inoculum was prepared using 24-hour cultures of the test bacteria (Table 2) grown in trypticase soy broth (TSB). Equal volumes of the bacterial test strains were combined and diluted one to ten in phosphate buffer to obtain an inoculum of approximately 5×10^7 to 5×10^8 colony forming units per ml (cfu/ml). The test samples were inoculated with 1% of the mixed bacterial inoculum. A mixed fungal inoculum was prepared using cell suspensions of the yeast Candida albicans ATCC #10231 and the mold Aspergillus brasiliensis ATCC #16404 in phosphate buffer. Equal volumes of the fungal test strains were combined and diluted one to ten with phosphate buffer to obtain an inoculum of approximately 5×10^6 to 5×10^7 cfu/ml. The test samples were inoculated with […] of the mixed fungal inoculum.
The samples were subjected to microbial challenge at time zero and inoculated a second time after seven days. The number of microorganisms added to each sample was determined by a standard Most Probable Number (MPN) determination in Trypticase Soy Broth (TSB) for bacteria and Potato Dextrose Broth (PDB) for fungi. Samples were incubated at 25° C. for the test duration of four weeks. Samples were monitored for bacterial and fungal contamination after 2, 7, 14, 21, and 28 days. Samples challenged with bacteria were streak-plated onto Trypticase Soy Agar (TSA) and incubated at 30° C. for 24 hours. Samples challenged with fungi were streak-plated onto Potato Dextrose Agar (PDA) and incubated at 25° C. for 7 days. After incubation, plates were given a Growth Rating to determine the colony forming units per gram (CFU/g) present in each test sample at the testing time point. As is used by various challenge test methods, the passing criteria is more stringent for bacteria than for fungi. […]
For bacteria challenge testing, a composition was scored as “Pass” if the composition obtained a growth rating score caused by bacteria of 1 or less at days 21-28 of the testing period and was scored as “Fail” if the composition obtained a growth rating score caused by bacteria of 2 or more at days 21-28 of the testing period. […]

Row | Structure (SMILES) | challenge test outcome (in words)
1 | N=C(NCCCCCCNC(=N)NC(=N)Nc1ccc(Cl)cc1)NC(=N)Nc1ccc(Cl)cc1.O=C(O)[C@H](O)[C@@H](O)[C@H](O)[C@H](O)CO.O=C(O)[C@H](O)[C@@H](O)[C@H](O)[C@H](O)CO [CHD.G, Chlorhexidine digluconate] | none of the lotion formulations passed the challenge test
2 | O=C(O)c1ccccc1 [NaBz, Sodium benzoate] | none of the lotion formulations passed the challenge test
3 | CCCCCCCC(=O)OCC(O)CO (centres unmarked) [GC, Glyceryl caprylate] | none of the lotion formulations passed the challenge test
4 | CC(=O)c1ccc(O)cc1 [HAP, 4-Hydroxyacetophenone] | none of the lotion formulations passed the challenge test
5 | CCCCCCCCCCCC(=O)N[C@@H](CCCN=C(N)N)C(=O)OCC.Cl [LAE, Ethyl lauroyl arginate HCl] | none of the lotion formulations passed the challenge test
